Key:
[1] = tested on: mobilized peripheral blood CD34+ cells; assay: CD34+ expansion assay; type: cell-based; conditions: Homo sapiens; read-out: CD34 Frequency EC50
Procedure: Approximately 3,000 mobilized peripheral blood CD34+ cells were plated per well in 384-well plate at a final volume of 45 μL in HSC growth media (SFEM supplemented with Pen/Strep, 50 ng/mL FLT3L, TPO, SCF and IL-6). Serial dilutions were made in HSC growth media with a top final concentration of 10 μM. 5 μL 10× stock was added to each well. The plate was gently tapped on all sides and incubated for 7 days at 37° C./5% CO2. On day 7, the media was aspirated on a Biotek plate washer and 30 μL staining solution was added to the cells with antibodies against CD34-PE, CD90-APC, CD45RA-PE-CF594 in PBS. Cells were washed once in PBS and resuspended in 80 μL for final volume. 40 μL was acquired by flow cytometry (BD Celesta).

[2] = target: T1, aryl hydrocarbon receptor (AHR) (Homo sapiens, UniProt P35869); assay: DRE-Luciferase reporter high-throughput screen (AHR antagonist, VAF347-activated)
T1 sequence (P35869 11-848): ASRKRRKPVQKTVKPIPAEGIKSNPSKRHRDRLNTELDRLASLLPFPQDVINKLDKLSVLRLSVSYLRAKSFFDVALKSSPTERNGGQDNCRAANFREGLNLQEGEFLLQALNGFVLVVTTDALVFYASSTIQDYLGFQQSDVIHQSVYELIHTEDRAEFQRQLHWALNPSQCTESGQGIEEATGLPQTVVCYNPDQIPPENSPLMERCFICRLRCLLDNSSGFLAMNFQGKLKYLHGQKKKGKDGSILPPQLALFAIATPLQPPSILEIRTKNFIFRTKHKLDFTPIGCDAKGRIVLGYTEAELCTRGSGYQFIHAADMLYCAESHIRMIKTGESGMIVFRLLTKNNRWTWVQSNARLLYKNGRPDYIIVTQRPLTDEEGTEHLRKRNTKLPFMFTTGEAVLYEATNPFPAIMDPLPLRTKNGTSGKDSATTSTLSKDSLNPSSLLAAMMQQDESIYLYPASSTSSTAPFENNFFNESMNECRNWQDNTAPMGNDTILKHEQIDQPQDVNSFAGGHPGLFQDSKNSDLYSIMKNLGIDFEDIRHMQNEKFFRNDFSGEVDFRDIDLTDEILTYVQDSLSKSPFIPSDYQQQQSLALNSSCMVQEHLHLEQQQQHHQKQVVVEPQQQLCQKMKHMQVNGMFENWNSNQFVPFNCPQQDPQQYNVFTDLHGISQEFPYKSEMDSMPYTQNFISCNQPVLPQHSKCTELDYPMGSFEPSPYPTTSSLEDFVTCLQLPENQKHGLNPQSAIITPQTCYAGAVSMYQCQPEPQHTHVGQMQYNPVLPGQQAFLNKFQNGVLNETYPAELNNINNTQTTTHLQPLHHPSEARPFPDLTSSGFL
Text: HepG2 hepatocellular carcinoma cells were transfected with a dioxin-response element (DRE) Firefly luciferase reporter construct. Luciferase transcription was activated with the aryl hydrocarbon receptor (AHR) agonist, VAF347. Addition of an AHR antagonist results in inhibition of the luciferase transcription and a loss of signal in the assay.
HepG2, a hepatocellular carcinoma cell line, was transfected with the dioxin-response element Firefly luciferase reporter construct using the TransIT-transfection system. Prior to transfection, HepG2 cells (Sigma) were cultured at 90% confluency in Eagle's Modified Essential Medium (Sigma)+2 mM Glutamine (Sigma), +1^% Non Essential Amino Acids (Sigma)+10% Fetal Bovine Serum (Hyclone) and harvested and counted (Biorad TC20 cell counter). OptilMEM serum-free media and TransIT (Mirus) were mixed for transfection in 150 mm dishes by adding 240 μL Transit to 3.0 mL OptiMEM, vortexing briefly to mix, and incubating at room temperature for 20 minutes. The DNA mixture was prepared by adding 80 μg plasmid (pGudLuc6.1 plasmid, Garrison et al., (1996) Fundam. Appl. Toxicol., 30, 194-203), inverting to mix, and incubating at room temperature for 30 minutes. 30×10^6 HepG2 cells were seeded in 30 mL media and 3.3 mL of the DNA, OptiMEM, and TransIT mixture was added dropwise to the plate. The plate was mixed by rocking and incubated at 37° C./5% CO2 overnight. The next day, cells were harvested by aspirating media, washing once with sterile phosphate buffered saline (PBS, Gibco), trypsinzing with 0.05% Trypsin (Corning) and harvesting cells with culture medium, and freezing with Cell Freezing Media (Gibco) at 5 50×10^6 cells/vial in 1 mL/vial.
Transiently-transfected frozen HepG2 cells with DRE-Luciferase, were thawed in a 37° C. water bath and resuspended in complete media. 4 μL cells at 15,000 cells per well was transferred into the wells of a 1536-well Alphaplate assay plate (PerkinElmer) using TEMPEST liquid dispenser. The plate was centrifuged at 1000 rpm for 1 minute. 30 nL of the controls (1 μM (S)-2-(6-((2-(1H-indol-3-yl)ethyl)amino)-2-(5-fluoropyridin-3-yl)-9H-purin-9-yl)propan-1-ol or 100% DMSO) were transferred to the assay plate using the Pin Tool on BRAVO. 1 μL of VAF347 (15 nM final concentration) in complete media was added to the wells using TEMPEST. The plate was centrifuged at 1000 rpm for 1 minute and incubated at 37° C./5% CO2 overnight. After incubation, the plate was removed from the incubator and brought to room temperature. 2 μL of room temperature Steady-Glo luciferase detection reagent (Promega) was added to the wells with TEMPEST. The plate was centrifuged at 2000 rpm for 1 minute, sealed with clear plastic seal and kept at room temperature for 15 minutes prior to measuring luminescence on ENVISION.
Approximately 166,000 compounds were screened in 132 1536-well plates in the luciferase reporter gene assay at a final concentration of 12 μM. […] Each compound was tested at 0.1 μM, 1.0 μM, and 10 μM in the DRE luciferase assay and Cell Titer Glo cytotoxicity assay (Promega). […] 512 compounds were selected for 10-point dose-response in the AHR luciferase reporter assay and the Cell Titer Glo cytotoxicity assay.

Row | EC50 [1] | IC50 [2] | Structure (SMILES)
1 | < 500 nM | < 200 nM | COc1ccc(-c2n[nH]c3c2C(=O)CC(c2ccccc2)C3)cc1 (centres unmarked) [compound 117]
2 | 1000 to 5000 nM | 500 to 1000 nM | Cc1ccc(-c2csc(-c3ccncc3)n2)c(C)c1 [compound 52]
3 | 1000 to 5000 nM | 500 to 1000 nM | COc1ccccc1-c1nnc(SCc2cccc3ccccc23)n1C [compound 96]
4 | 1000 to 5000 nM | 500 to 1000 nM | CCN(C)C(=O)c1cnc(-c2noc3ccccc23)s1 [compound 65]
5 | 500 to 1000 nM | 200 to 500 nM | CC(C)c1cc(-c2nnc3sc(-c4ccccn4)nn23)[nH]n1 [compound 72]
6 | < 500 nM | 200 to 500 nM | N#Cc1cn(-c2ccc(Cl)cc2)nc1C(=O)c1cccs1 [compound 91]
7 | 1000 to 5000 nM | 200 to 500 nM | COc1ccc(-n2nnc(C(=O)Nc3ccccc3C(F)(F)F)c2N)cc1 [compound 28]
8 | 500 to 1000 nM | 200 to 500 nM | O=[N+]([O-])c1ccc(-c2cn3nc(C(F)(F)F)sc3n2)cc1 [compound 68]
9 | 500 to 1000 nM | 200 to 500 nM | Cc1cn2nc(NCCOc3ccc(F)cc3)sc2n1 [compound 70]
10 | 500 to 1000 nM | 500 to 1000 nM | Cc1cccc(NC(=O)c2cc(-c3ccc(C)cc3O)n[nH]2)c1 [compound 20]
11 | 500 to 1000 nM | 500 to 1000 nM | Nc1c(-c2nc(-c3ccccc3)cs2)nnn1-c1ccc(F)cc1 [compound 53]
12 | < 500 nM | < 200 nM | Cc1noc(C)c1COc1cccc(C(=O)/N=c2/sccn2C)c1 [compound 118]
13 | 1000 to 5000 nM | 500 to 1000 nM | Cc1ccc(C)c(NC(=O)c2nc3c(s2)CCCN3c2ccc(C)nn2)c1 [compound 29]
14 | 1000 to 5000 nM | 500 to 1000 nM | Cc1ccc(-c2nc(-c3cc(C)on3)no2)cc1 [compound 122]
15 | 1000 to 5000 nM | 500 to 1000 nM | CCc1cc(C(=O)Nc2ccc(SC)cc2)sc1C [compound 38]
16 | 1000 to 5000 nM | 500 to 1000 nM | COc1ccc(NC(=O)CNc2ccc(C(F)(F)F)cc2)cc1Cl [compound 127]
17 | 1000 to 5000 nM | 500 to 1000 nM | Cc1ccc(-c2c(C)sc(NC(=O)c3cccnc3)c2C(N)=O)cc1 [compound 42]
18 | 1000 to 5000 nM | 500 to 1000 nM | Cc1ccc(C(=O)Nc2ccc(-c3nccs3)cc2)cc1 [compound 8]
19 | 1000 to 5000 nM | 500 to 1000 nM | Clc1ccc(COc2ccc(-c3ccnc4ccnn34)cc2)cc1 [compound 104]
20 | 1000 to 5000 nM | 500 to 1000 nM | FC(F)(F)Oc1ccc(-c2nnc(-c3cccnc3)o2)cc1 [compound 123]
21 | 500 to 1000 nM | 200 to 500 nM | Cc1ccc(NC(=O)c2cccc(OCc3c(C)noc3C)c2)c(Cl)c1 [compound 3]
22 | 1000 to 5000 nM | 500 to 1000 nM | Cc1ccc(Nc2cc(-c3ccccc3)nc3ncnn23)cc1 [compound 107]
23 | 1000 to 5000 nM | 500 to 1000 nM | COc1ccc(-c2nnc(Nc3ccccc3O)c3ccccc23)cc1 [compound 130]
24 | ≥ 5000 nM | 500 to 1000 nM | COc1ccc(-c2ccc3c(N)c(C(=O)NC4CC4)sc3n2)cc1 [compound 136]
25 | 500 to 1000 nM | 200 to 500 nM | Cc1ccc(NC(=O)c2cn3ccccc3n2)cc1 [compound 21]
26 | 500 to 1000 nM | 200 to 500 nM | Cc1nn2cc(-c3ccc(-c4ccccc4)cc3)nc2s1 [compound 69]
27 | 1000 to 5000 nM | 200 to 500 nM | Cc1ccc(-c2ccc3c(C)nn(-c4ccccn4)c3n2)cc1 [compound 105]
28 | < 500 nM | 500 to 1000 nM | Cc1ccc(-n2nnc(-c3nc4ccccc4s3)c2N)cc1 [compound 94]
29 | ≥ 5000 nM | 500 to 1000 nM | Fc1ccc(/C=N\N2CCN(c3ccccn3)CC2)cc1 [compound 77]
30 |  | < 200 nM | CSc1nc2cc(-c3ccc(Cl)cc3)nn2c(N)c1C#N [69B]

The next lines start with the molecule.

Row | Structure (SMILES) | EC50 [1] | IC50 [2]
31 | CC(C)OCCCn1c(=O)c(-c2cccs2)nc2cc(S(=O)(=O)N3CCOCC3)ccc21 [compound 128] | 1000 to 5000 nM | 500 to 1000 nM
32 | Cc1cccc(C(=O)Nc2ccc(-c3nc4ncccc4o3)cc2)c1 [compound 4] | 500 to 1000 nM | 500 to 1000 nM
33 | CCOC(=O)N1CCN(c2nc(CC)nc3sc(C)cc23)CC1 [compound 75] | 1000 to 5000 nM | 200 to 500 nM
34 | CC(=O)N(C)Cc1cccc(NC(=O)c2n[nH]c3ccccc23)c1 [compound 30] | ≥ 5000 nM | 500 to 1000 nM
35 | CC(=O)c1c(C)nc2nc(SCc3cccc(Cl)c3)nn2c1C [compound 125] | 1000 to 5000 nM | 500 to 1000 nM
36 | O=c1[nH]c2ccc(-c3csc(-c4ccccn4)n3)cc2[nH]1 [compound 58] | ≥ 5000 nM | 500 to 1000 nM
37 | Cc1noc(C)c1C(=O)Nc1ccc(-c2nc3ccccc3o2)cc1 [compound 25] | 500 to 1000 nM | 200 to 500 nM
38 | Cc1nn2c(C)c(C(=O)OC(C)C)nnc2c1-c1ccccc1 [compound 106] | 500 to 1000 nM | 500 to 1000 nM
39 | CCc1cccc2c(-c3cn4cc(S(N)(=O)=O)ccc4n3)c[nH]c12 [compound 100] | < 500 nM | < 200 nM
40 | CSc1ccc(N2C(=O)C3Cc4ccccc4CN3C2=O)cc1 (centres unmarked) [compound 120] | 500 to 1000 nM | 200 to 500 nM
41 | CC(C)n1nnc2cc(C(=O)Nc3ccc(Cl)cc3)ccc21 [compound 17] | < 500 nM | 500 to 1000 nM
42 | O=C(Nc1ccc(-c2nnc3n2CCCCC3)cc1)c1cccc2cccnc12 [compound 24] | 500 to 1000 nM | 200 to 500 nM
43 | N#Cc1cccc(C#N)c1N1CCN(C(=O)Nc2ccccc2)CC1 [compound 79] | ≥ 5000 nM | 500 to 1000 nM
44 | CCC(=O)N1CCc2cc(C(=O)Nc3ccn(CCc4ccccn4)n3)ccc21 [compound 47] | 1000 to 5000 nM | 500 to 1000 nM
45 | Cn1c(SCc2ccc(-c3ccccc3)cc2)nnc1C(F)(F)F [compound 95] | 1000 to 5000 nM | 500 to 1000 nM
46 | CCN(CC)C(=O)c1nc2c(s1)CCN(c1ncccn1)CC2 [compound 133] | 1000 to 5000 nM | 500 to 1000 nM
47 | N#Cc1nc(NCC(O)c2ccc(OC(F)F)cc2)ccc1Cl (centres unmarked) [compound 88] | 1000 to 5000 nM | 200 to 500 nM

Row | Structure (SMILES) | EC50 [1] | IC50 [2]
48 | Clc1ccc(-c2nc(-c3cnccn3)no2)cc1 [compound 140] | ≥ 5000 nM | 500 to 1000 nM
49 | CC(=O)N1CCN(c2nc3cc(C(F)(F)F)ccc3s2)CC1 [compound 74] | 1000 to 5000 nM | 500 to 1000 nM
50 | COc1cc(C(F)(F)F)ccc1C(=O)Nc1cccc(N2CCOCC2)c1 [compound 1] | 500 to 1000 nM | 200 to 500 nM
51 | COc1ccc(NC(=O)c2nnn(-c3cc(C)cc(C)c3)c2C)c(OC)c1 [compound 22] | 500 to 1000 nM | 500 to 1000 nM
52 | Cc1ccccc1CS(=O)(=O)N1CCc2ccccc2C1 [compound 131] | 1000 to 5000 nM | 500 to 1000 nM
53 | O=[N+]([O-])c1ccc(/C=N/Nc2nccc(-c3cccnc3)n2)cc1 [compound 113] | 1000 to 5000 nM | 200 to 500 nM
54 | Cc1ccc(Cc2c(C)nc(Nc3nc(C)c4ccc(C)cc4n3)[nH]c2=O)cc1 [compound 124] | 1000 to 5000 nM | 200 to 500 nM
55 | N#Cc1ccc(-c2ccncc2)nc1SCc1ccccn1 [compound 89] | < 500 nM | 500 to 1000 nM
56 | C/C(=N\Nc1ncc(Br)cn1)c1cccc([N+](=O)[O-])c1 [compound 112] | < 500 nM | 500 to 1000 nM
57 | CCc1ccc(C(=O)Nc2scc(-c3ccc(Cl)cc3)c2C(N)=O)s1 [compound 43] | 500 to 1000 nM | 200 to 500 nM
58 | O=C1CN(C(=O)c2sc3ccccc3c2Cl)c2ccccc2N1 [compound 132] | 1000 to 5000 nM | 500 to 1000 nM
59 | Cc1cc(Oc2ncccc2C#N)ccc1NC(=O)c1oc(Br)cc1C [compound 26] | 1000 to 5000 nM | 200 to 500 nM
60 | Cc1ccc(NC(=O)c2sc3nc(N)c(C#N)cc3c2N)cc1Cl [compound 19] | < 500 nM | < 200 nM
61 | COc1ccc(C(=O)Nc2ccc3c(c2)oc2ccccc23)cc1[N+](=O)[O-] [compound 14] | < 500 nM | < 200 nM
62 | FC(F)(F)c1nc(N2CCN(c3ncccn3)CC2)c2ccccc2n1 [compound 76] | ≥ 5000 nM | 200 to 500 nM
63 | Cc1ccc2nc(-c3ccc(NC(=O)COC(=O)c4ccc(O)cc4O)cc3)sc2c1 [compound 138] | ≥ 5000 nM | 500 to 1000 nM
